Legend:
PIKFYVE = biological target: T1, PIKFYVE (Homo sapiens, UniProt Q9Y2I7); test: KINOMEscan competition binding, PIKFYVE; settings: 10 µM compound; for remaining binding at 10 µM: lower = stronger binding, read-out: PIKFYVE %Ctrl @ 10000nM (POC)
T1 construct: DNA label for qPCR read-out (T7 phage fusion or DNA tag); purchased Eurofins DiscoverX Corporation; host or cells: T7 phage in E. coli (BL21-derived) or HEK-293
Protocol: (§1) The KINOMEscan screening platform (Eurofins DiscoverX Corporation) was performed using active site-directed competition binding assay to quantitatively measure interactions between BK40143 and BK40197 and more than 450 human kinases and disease relevant mutant variants. […] Screening “hits” are identified by measuring the amount of kinase captured in test (BK40143 and BK40197) versus control samples by using a quantitative and ultra-sensitive qRT-PCR method that detects the associated DNA label. BK40143 and BK40197 were screened at 10 µM concentration, and results for primary screen binding interactions were reported as “% Ctrl” (POC), where lower numbers indicate stronger hits and calculated as follows: [test compound signal−positive control signal/negative control signal−positive control signal]×100
(§2) negative control = DMSO (100% Ctrl)
(§3) positive control = control compound (0% Ctrl)
(§4) Based on screening data from of profiled compounds, a proportional relationship between primary screening results and corresponding compound/target affinities can be described as binding constants (Kd values) for the indicated ranges of POC values with tighter binding (higher affinity) interactions associated with lower POC values and weaker binding (lower affinity) associated with higher POC values. Briefly, kinase-tagged T7 phage strains were grown in parallel in 24-well blocks in an E. coli host derived from the BL21 strain. E. coli were grown to log-phase and infected with T7 phage from a frozen stock (multiplicity of infection = 0.4) and incubated with shaking at 32°C until lysis (90–150 min). The lysates were centrifuged (6,000g) and filtered (0.2 μm) to remove cell debris. The remaining kinases were produced in HEK-293 cells and subsequently tagged with DNA for qRT-PCR detection. Streptavidin-coated magnetic beads were treated with biotinylated small molecule ligands for 30 min at RT to generate affinity resins for kinase assays. The liganded beads were blocked with excess biotin and washed with blocking buffer (1% BSA, 0.05% Tween 20, 1 mM DTT; SeaBlock [Pierce]) to remove unbound ligand and to reduce non-specific phage binding. Binding reactions were assembled by combining kinases, liganded affinity beads, and test compounds in 1x binding buffer (20% 0.17x PBS, 0.05% Tween 20, 6 mM DTT; SeaBlock). Test compounds were prepared as 100x stocks in 100% DMSO and directly diluted into the assay. All reactions were performed in polypropylene 384-well plates in a final volume of 0.02 ml. The assay plates were incubated at RT with shaking for 1 h and the affinity beads were washed with wash buffer (1x PBS, 0.05% Tween 20). […] The kinase concentration in the eluates was measured by qRT-PCR.

[1] = tested on: microglial PAR2-tryptase interactions in TgAPP mice; test: Proximity ligation assay PAR2-tryptase; type: in vivo, mouse; settings: vs DMSO
Protocol: Slides containing two consecutive brain slices were blocked in Duolink blocking solution for 1 h in a slide chamber containing water at 37°C. Blocking solution was then removed and PAR2 (1:250) and tryptase (1:250) primary antibodies were added at the concentrations specified above and incubated at 4°C overnight. The next day, primaries were removed and slides were washed twice for 5 min in wash buffer before addition of plus and minus probes for incubation at 37°C in a humid chamber for 1 h. Slides were then washed again twice for 5 min in wash buffer before addition of ligation buffer for incubation at 37°C in a humid chamber for 30 min. Next, slides were washed twice for 5 min in wash buffer, and polymerase was added for incubation at 37°C in a humid chamber for 100 min. Finally, slides were washed twice for 10 min in wash buffer and mounted using DAPI mounting medium and a glass coverslip. Slides were imaged on a Leica Dmi8 light microscope.

IRAK1 = biological target: T2, IRAK1 (Homo sapiens, UniProt P51617); test: KINOMEscan competition binding, IRAK1; settings: 10 µM compound; for remaining binding at 10 µM: lower = stronger binding, read-out: IRAK1 %Ctrl @ 10000nM (POC)
T2 construct: DNA label for qPCR read-out (T7 phage fusion or DNA tag); purchased Eurofins DiscoverX Corporation; host or cells: T7 phage in E. coli (BL21-derived) or HEK-293
Protocol: as §1, §2, §3, §4

phospho-c-KIT = test: Western blot for phospho-c-KIT in brain lysates; type: in vivo, mouse; settings: TgAPP mice; BK40143 5 mg/kg, BK40197 45 mg/kg; vs DMSO
Text: c-KIT is responsible for mast cell development and homeostasis ([Lake et al, 1978]; [Linnekin, 1999]; [Kitamura et al, 2006]). TKs are the central driving force for processes leading to mast cell activation ([Parravicini et al, 2002]; [Gomez et al, 2005]). Multiple receptors are capable of mediating or modifying mast cell activation ([Kraft & Kinet, 2007]; [Kuehn & Gilfillan, 2007]), the major receptor responsible being FcεRI, the high affinity receptor for immunoglobulin E (IgE) ([Rivera & Gilfillan, 2006]). Mast cells are tissue-resident cells of hematopoietic lineage which are derived from CD13^+CD34^+KIT(CD117)^+ bone marrow pluripotent progenitors ([Kirshenbaum et al, 1999]). Although mast cells play an important role in the innate immune system ([Marshall, 2004]; [Galli et al, 2005]), these cells are also responsible for the detrimental exaggerated reactions to antigen ([Galli et al, 2008]) that follow the release of potent inflammatory mediators as a consequence of receptor-mediated mast cell activation ([Metcalfe et al, 1997]). The progression of these cells to fully mature mast cells is dependent on c-KIT activation which occurs because of stem cell factor-induced c-KIT dimerization and auto-phosphorylation ([Kirshenbaum et al, 1999]). […]
Brain hemispheres from treated and untreated animals were lysed in 1x STEN buffer and protein concentrations were measured via BCA assay. […]

T2 sequence (P51617 whole entry, the tested form may be a part): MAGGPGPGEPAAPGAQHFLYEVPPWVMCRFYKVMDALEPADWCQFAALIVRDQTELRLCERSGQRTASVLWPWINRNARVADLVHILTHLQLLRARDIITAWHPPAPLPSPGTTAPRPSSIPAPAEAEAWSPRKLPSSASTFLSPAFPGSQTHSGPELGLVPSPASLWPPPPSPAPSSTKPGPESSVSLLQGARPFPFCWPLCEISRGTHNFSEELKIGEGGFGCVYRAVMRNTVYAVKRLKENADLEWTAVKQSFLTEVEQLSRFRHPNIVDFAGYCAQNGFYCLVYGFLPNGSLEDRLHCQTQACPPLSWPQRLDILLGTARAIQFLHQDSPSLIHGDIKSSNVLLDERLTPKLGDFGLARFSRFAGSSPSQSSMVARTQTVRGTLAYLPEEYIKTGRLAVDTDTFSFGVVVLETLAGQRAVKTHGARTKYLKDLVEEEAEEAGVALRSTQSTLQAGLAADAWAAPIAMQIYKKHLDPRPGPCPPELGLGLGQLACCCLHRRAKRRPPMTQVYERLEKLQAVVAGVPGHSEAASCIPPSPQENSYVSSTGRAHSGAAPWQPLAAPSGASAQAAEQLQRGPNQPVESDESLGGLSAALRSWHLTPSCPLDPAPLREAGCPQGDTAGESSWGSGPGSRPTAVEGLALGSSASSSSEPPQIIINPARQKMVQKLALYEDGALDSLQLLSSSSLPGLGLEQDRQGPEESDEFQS
T1 sequence (Q9Y2I7 whole entry, the tested form may be a part): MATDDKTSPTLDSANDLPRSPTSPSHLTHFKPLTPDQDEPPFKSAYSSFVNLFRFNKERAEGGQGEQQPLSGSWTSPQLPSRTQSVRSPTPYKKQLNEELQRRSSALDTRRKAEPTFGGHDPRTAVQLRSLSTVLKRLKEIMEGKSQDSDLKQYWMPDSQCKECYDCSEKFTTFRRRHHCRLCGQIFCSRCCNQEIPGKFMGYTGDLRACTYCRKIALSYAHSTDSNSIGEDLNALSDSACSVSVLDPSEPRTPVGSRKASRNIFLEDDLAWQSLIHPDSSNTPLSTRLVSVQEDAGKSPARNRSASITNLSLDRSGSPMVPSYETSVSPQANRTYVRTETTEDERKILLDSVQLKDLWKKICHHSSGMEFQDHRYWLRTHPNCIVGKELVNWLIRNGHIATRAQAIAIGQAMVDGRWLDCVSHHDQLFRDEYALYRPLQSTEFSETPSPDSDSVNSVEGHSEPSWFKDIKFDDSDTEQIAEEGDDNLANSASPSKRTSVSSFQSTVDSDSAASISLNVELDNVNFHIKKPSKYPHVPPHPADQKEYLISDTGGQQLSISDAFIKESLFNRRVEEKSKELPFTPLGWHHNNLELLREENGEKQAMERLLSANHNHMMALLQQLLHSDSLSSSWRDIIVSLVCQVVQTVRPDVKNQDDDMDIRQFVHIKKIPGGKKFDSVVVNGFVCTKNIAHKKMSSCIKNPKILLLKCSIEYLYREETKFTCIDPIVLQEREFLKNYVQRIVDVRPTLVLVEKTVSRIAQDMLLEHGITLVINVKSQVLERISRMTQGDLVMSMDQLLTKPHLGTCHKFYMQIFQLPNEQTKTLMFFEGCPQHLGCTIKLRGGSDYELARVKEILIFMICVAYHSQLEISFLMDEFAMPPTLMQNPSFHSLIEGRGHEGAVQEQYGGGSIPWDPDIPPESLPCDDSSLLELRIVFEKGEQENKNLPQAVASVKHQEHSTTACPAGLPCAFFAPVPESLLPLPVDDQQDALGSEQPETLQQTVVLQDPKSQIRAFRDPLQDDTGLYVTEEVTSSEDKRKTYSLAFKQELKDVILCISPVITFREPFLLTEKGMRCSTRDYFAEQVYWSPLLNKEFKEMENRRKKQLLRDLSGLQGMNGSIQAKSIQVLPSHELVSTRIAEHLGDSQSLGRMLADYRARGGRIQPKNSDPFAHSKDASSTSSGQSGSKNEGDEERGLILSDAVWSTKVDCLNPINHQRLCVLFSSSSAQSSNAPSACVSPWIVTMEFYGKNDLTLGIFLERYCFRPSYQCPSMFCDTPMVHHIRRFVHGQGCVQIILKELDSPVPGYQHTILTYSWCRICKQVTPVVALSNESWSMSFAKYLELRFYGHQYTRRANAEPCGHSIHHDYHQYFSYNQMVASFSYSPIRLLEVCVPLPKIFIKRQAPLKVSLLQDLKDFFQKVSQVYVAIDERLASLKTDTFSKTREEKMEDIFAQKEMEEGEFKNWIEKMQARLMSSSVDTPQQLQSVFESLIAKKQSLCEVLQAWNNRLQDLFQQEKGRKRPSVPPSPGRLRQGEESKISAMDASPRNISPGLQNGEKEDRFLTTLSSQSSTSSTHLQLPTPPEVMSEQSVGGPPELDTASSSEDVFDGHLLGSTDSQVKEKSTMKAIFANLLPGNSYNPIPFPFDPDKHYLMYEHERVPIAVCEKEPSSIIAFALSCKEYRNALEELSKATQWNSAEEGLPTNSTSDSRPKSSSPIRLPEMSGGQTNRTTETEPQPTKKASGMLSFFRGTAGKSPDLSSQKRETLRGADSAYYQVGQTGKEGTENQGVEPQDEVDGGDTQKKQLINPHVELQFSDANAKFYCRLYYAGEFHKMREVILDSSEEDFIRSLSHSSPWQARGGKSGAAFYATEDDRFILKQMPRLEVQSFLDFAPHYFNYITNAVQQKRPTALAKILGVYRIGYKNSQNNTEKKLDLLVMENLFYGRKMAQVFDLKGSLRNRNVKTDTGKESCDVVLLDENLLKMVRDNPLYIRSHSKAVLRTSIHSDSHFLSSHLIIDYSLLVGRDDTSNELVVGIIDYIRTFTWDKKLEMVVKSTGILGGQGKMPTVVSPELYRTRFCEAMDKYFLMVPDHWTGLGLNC

SMILES | inhibition at 10 µM (PIKFYVE) [%] | remaining binding at 10 µM (PIKFYVE) [%] | mast cell tryptase / microglial PAR2-tryptase interactions (proximity ligation) [1] | inhibition at 10 µM (IRAK1) [%] | remaining binding at 10 µM (IRAK1) [%] | phospho-c-KIT levels in brain (Western blot) (phospho-c-KIT)
Cc1cccc(-c2cc3nccc(Nc4ccccc4)c3s2)c1 [BK40143] | 32 | 68 | reduced mast cell mediators such as tryptase | 54 | 46 | significant decrease in phospho-c-KIT levels
Cc1cccc(-c2cc3nccc(N4CCOCC4)c3s2)c1 [BK40197] | 99.6 | 0.4 | reduced mast cell mediators such as tryptase | 94.7 | 5.3 | similar, albeit not statistically significant, trend

Reference: PMC11249953, “c-KIT inhibitors reduce pathology and improve behavior in the Tg(SwDI) model of Alzheimer’s disease” (Life Science Alliance, 2024)
